The target in the experiment is T1, CYP11A1 (Homo sapiens, UniProt P05108).
T1 construct: human H295R adrenocortical carcinoma cell line was used as source of enzyme; endogenous in cells; host or cells: H295R human adrenocortical carcinoma cells
T1 sequence (P05108 40-521): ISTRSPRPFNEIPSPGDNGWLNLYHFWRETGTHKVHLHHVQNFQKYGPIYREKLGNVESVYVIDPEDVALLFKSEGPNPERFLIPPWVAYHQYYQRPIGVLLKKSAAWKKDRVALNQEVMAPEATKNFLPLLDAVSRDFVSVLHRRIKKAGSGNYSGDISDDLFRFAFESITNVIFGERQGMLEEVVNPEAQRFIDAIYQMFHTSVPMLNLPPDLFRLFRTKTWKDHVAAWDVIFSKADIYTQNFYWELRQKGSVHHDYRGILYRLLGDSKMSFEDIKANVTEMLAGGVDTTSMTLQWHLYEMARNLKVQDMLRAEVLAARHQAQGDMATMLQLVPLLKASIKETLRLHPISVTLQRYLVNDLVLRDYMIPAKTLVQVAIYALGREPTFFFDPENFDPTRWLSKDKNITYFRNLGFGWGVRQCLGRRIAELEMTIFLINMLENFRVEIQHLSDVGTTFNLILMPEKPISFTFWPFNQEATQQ
Put plainly: CYP11A1 inhibition, isocaproic acid release assay (IARA) in H295R cells. To be noted: human H295R adrenocortical carcinoma cells treated three days, 3 nM [24,25-3H]-labelled cholesterol, 1% DMSO; read-out: IC50 on CYP11A1 inhibition (Group). The format is cell-based. The protocol: The ability of the test compounds to inhibit conversion of cholesterol to pregnenolone and isocaproic acid was measured by modification of isocaproic acid release assay (IARA) described by Ruangwises et al. (Biology of Reproduction 1991; 45(1):143-50) except that human H295R adrenocortical carcinoma cell line was used as source of enzyme and extraction was done with dextran-coated charcoal suspension (Isomaa, V. et al., Endocrinology 1982; 111(3):833-843). […] To determine the half maximal inhibitory concentration (IC50) of the test compounds on CYP11A1 inhibition, the cells were treated for three days with increasing concentrations of the test compounds in the presence of 3 nM [24,25-3H]-labelled cholesterol (American Radiolabelled Chemicals).
The final DMSO concentration was 1%. Cell culture medium was extracted with dextran-coated charcoal suspension and the radiolabelled isocaproic acid was determined by mixing 100 μl of supernatant fraction in 200 μl of scintillation fluid (OptiPhase SuperMix, Perkin Elmer). Radioactivity was measured using a Microbeta scintillation counter (1450 MicroBeta Trilux, Wallac). All the test compounds were studied at 10 concentrations in duplicates.

33 compounds from patent publication US20250011285A1, “CYP11A1 INHIBITORS” (ORION CORPORATION, priority 2021, published 2025) can be followed below.

Bounds are passed on as bounds.

One may read the IC50 as the concentration at which inhibition is half-maximal.

As for `CC(=O)c1cc(CN2Cc3ccccc3C2)ccc1OCc1ccc(C(=O)N(C)C)cc1` [Compound 42, 4-((2-Acetyl-4-(isoindolin-2-ylmethyl)phenoxy)methyl)-N,N-dimethylbenzamide], the IC50 is below 150 nM.

Take `CS(=N)(=O)c1ccc(COc2ccc(CN3Cc4ccccc4C3)cc2C#N)cc1` (stereo not drawn) [Compound 33, 5-(isoindolin-2-ylmethyl)-2-((4-(S-methylsulfonimidoyl)benzyl)oxy)benzonitrile]: the IC50 was below 150 nM.

Regarding `CN(C)C(=O)c1ccc(COc2ccc(CN3Cc4ccccc4C3)cc2[N+](=O)[O-])cc1` [Compound 40, 4-((4-(isoindolin-2-ylmethyl)-2-nitrophenoxy)methyl)-N,N-dimethylbenzamide], the IC50 was below 150 nM.

For the compound `COc1c(OCc2ccc(S(C)(=O)=O)cc2)ccc(CN2Cc3ccccc3C2)c1F` [Compound 21, 2-(2-Fluoro-3-methoxy-4-((4-(methylsulfonyl)benzyl)oxy)benzyl)isoindoline], the IC50 is below 150 nM.

In the case of `C=CCc1cc(CN2Cc3ccccc3C2)ccc1OCc1ccc(C(=O)N(C)C)cc1` [Compound 15, 4-((2-Allyl-4-(isoindolin-2-ylmethyl)phenoxy)methyl)-N,N-dimethylbenzamide], the IC50 is 151 to 350 nM.

For `COC(=O)c1ccc(COc2ccc(CN3Cc4ccccc4C3)cc2OC)cc1` [Compound 1, Methyl 4-((4-(isoindolin-2-ylmethyl)-2-methoxyphenoxy)methyl) benzoate], the IC50 lay in the range of 351 to 1500 nM.

Regarding `COc1cc(CN2Cc3ccccc3C2)ccc1OCc1ccc(C(=O)N(C)CCOC(C)=O)cc1` [Compound 36, 2-(4-((4-(Isoindolin-2-ylmethyl)-2-methoxyphenoxy)methyl)-N-methyl-benzamido)ethyl acetate], the IC50 lay within 151 to 350 nM.

`COc1c(OCC2CCN(C(=O)NC(C)C)CC2)ccc(CN2Cc3ccccc3C2)c1[N+](=O)[O-]` [Compound 23, 4-((4-(Isoindolin-2-ylmethyl)-2-methoxy-3-nitrophenoxy)methyl)-N-isopropyl-piperidine-1-carboxamide]: the IC50 is 351 to 1500 nM.

With `CCS(=O)(=O)c1ccc(COc2ccc(CN3Cc4ccccc4C3)cc2C(C)=O)cc1` [Compound 43, 1-(2-((4-(Ethylsulfonyl)benzyl)oxy)-5-(isoindolin-2-ylmethyl)phenyl)ethan-1-one], the IC50 is below 150 nM.

As for `COCCS(=O)(=O)c1ccc(COc2ccc(CN3Cc4ccccc4C3)cc2COC)cc1` [Compound 20, 2-(4-((4-((2-Methoxyethyl)sulfonyl)benzyl)oxy)-3-(methoxymethyl)benzyl)-isoindoline], the IC50 is below 150 nM.

As to `COc1cc(CN2Cc3ccccc3C2)ccc1OCc1ccc(S(C)(=O)=O)cc1` [Compound 12, 2-(3-Methoxy-4-((4-(methylsulfonyl)benzyl)oxy)benzyl)isoindoline], the 50% inhibitory concentration (IC50) is below 150 nM.

Consider `CN(C)C(=O)c1ccc(COc2ccc(CN3Cc4ccccc4C3)cc2Cl)cc1` [Compound 4, 4-((2-Chloro-4-(isoindolin-2-ylmethyl)phenoxy)methyl)-N,N-dimethyl-benzamide], for which the IC50 lay in the range of 151 to 350 nM.

Take `CN(C)C(=O)c1ccc(COc2cc(F)c(CN3Cc4ccccc4C3)cc2F)cc1` [Compound 26, 4-((2,5-Difluoro-4-(isoindolin-2-ylmethyl)phenoxy)methyl)-N,N-dimethyl-benzamide]: the IC50 was below 150 nM.

Consider `COCCc1cc(CN2Cc3ccccc3C2)ccc1OCC1CCN(S(C)(=O)=O)CC1` [Compound 37, 2-(3-(2-Methoxyethyl)-4-((1-(methylsulfonyl)piperidin-4-yl)methoxy)benzyl)-isoindoline], for which the IC50 was in the range of 151 to 350 nM.

On to `CS(=O)(=O)N1CCC(COc2ccc(CN3Cc4ccccc4C3)c3cn[nH]c23)CC1` [Compound 38, 4-(Isoindolin-2-ylmethyl)-7-((1-(methylsulfonyl)piperidin-4-yl)methoxy)-1H-indazole], for which the IC50 is below 150 nM.

As for `CCOc1cc(CN2Cc3ccccc3C2)ccc1OCc1ccc(C(=O)N(C)C)cc1` [Compound 8, 4-((2-Ethoxy-4-(isoindolin-2-ylmethyl)phenoxy)methyl)-N,N-dimethyl-benzamide], the IC50 fell in the range of 151 to 350 nM.

With `CC(=O)c1cc(CN2Cc3ccccc3C2)ccc1OCC1CCN(S(C)(=O)=O)CC1` [Compound 48, 1-(5-(Isoindolin-2-ylmethyl)-2-((1-(methylsulfonyl)piperidin-4-yl)methoxy)-phenyl)ethan-1-one], the IC50 was below 150 nM.

As for `COC(=O)c1cc(CN2Cc3ccccc3C2)ccc1OCc1ccc(C(=O)N(C)C)cc1` [Compound 7, Methyl 2-((4-(dimethylcarbamoyl)benzyl)oxy)-5-(isoindolin-2-ylmethyl)-benzoate], the IC50 lay in the range of 151 to 350 nM.

Take `COC(=O)c1ccc(COc2ccc(CN3Cc4ccccc4C3)cc2[N+](=O)[O-])cc1` [Compound 39, Methyl 4-((4-(isoindolin-2-ylmethyl)-2-nitrophenoxy)methyl)benzoate]: the IC50 fell in the range of 351 to 1500 nM.

For the compound `COCc1cc(CN2Cc3ccccc3C2)ccc1OCc1ccc(S(C)(=O)=O)cc1` [Compound 18, 2-(3-(Methoxymethyl)-4-((4-(methylsulfonyl)benzyl)oxy)benzyl)isoindoline], the IC50 fell in the range of 151 to 350 nM.

On to `CC(=O)c1cc(CN2Cc3ccccc3C2)ccc1OCC1CCC(S(C)(=O)=O)CC1` (stereo not drawn) [Compound 50, 1-(5-(Isoindolin-2-ylmethyl)-2-((4-(methylsulfonyl)cyclohexyl)methoxy)-phenyl)ethan-1-one], for which the IC50 is 151 to 350 nM.

In the case of `CN(C)C(=O)c1ccc(COc2ccc(CN3Cc4ccccc4C3)c(F)c2F)cc1` [Compound 27, 4-((2,3-Difluoro-4-(isoindolin-2-ylmethyl)phenoxy)methyl)-N,N-dimethyl-benzamide], the IC50 was 351 to 1500 nM.

For the compound `CCC(=O)N1CCC(COc2ccc(CN3Cc4ccccc4C3)cc2C(C)=O)CC1` [Compound 49, 1-(4-((2-Acetyl-4-(isoindolin-2-ylmethyl)phenoxy)methyl)piperidin-1-yl)propan-1-one], the IC50 lay in the range of 151 to 350 nM.

Take `COc1cc(OCc2ccc(C(=O)N(C)C)cc2)ccc1CN1Cc2ccccc2C1` [Compound 31, 4-((4-(Isoindolin-2-ylmethyl)-3-methoxyphenoxy)methyl)-N,N-dimethyl-benzamide]: the IC50 is 351 to 1500 nM.

In the case of `Cn1ncc2c(CN3Cc4ccccc4C3)ccc(OCC3CCN(S(C)(=O)=O)CC3)c21` [Compound 47, 4-(Isoindolin-2-ylmethyl)-1-methyl-7-((1-(methylsulfonyl)piperidin-4-yl)-methoxy)-1H-indazole], the IC50 is below 150 nM.

Take `CS(=O)(=O)c1ccc(COc2ccc(CN3Cc4ccccc4C3)cc2C(N)=O)cc1` [Compound 54, 5-(Isoindolin-2-ylmethyl)-2-((4-(methylsulfonyl)benzyl)oxy)benzamide]: the IC50 was below 150 nM.

For `COCCNS(=O)(=O)c1ccc(COc2ccc(CN3Cc4ccccc4C3)cc2OC)cc1` [Compound 13, 4-((4-(Isoindolin-2-ylmethyl)-2-methoxyphenoxy)methyl)-N-(2-methoxyethyl)-benzenesulfonamide], the IC50 was below 150 nM.

In the case of `CN(C)C(=O)c1ccc(COc2cc(F)c(CN3Cc4ccccc4C3)c(F)c2)cc1` [Compound 25, 4-((3,5-Difluoro-4-(isoindolin-2-ylmethyl)phenoxy)methyl)-N,N-dimethyl-benzamide], the IC50 was 151 to 350 nM.

Take `COc1cc(CN2Cc3ccccc3C2)ccc1OCc1ccc(C(=O)N(C)C)cc1` [Compound 3, 4-((4-(Isoindolin-2-ylmethyl)-2-methoxyphenoxy)methyl)-N,N-dimethyl-benzamide]: the IC50 was below 150 nM.

In the case of `CN(C)C(=O)c1ccc(COc2ccc(CN3Cc4ccccc4C3)cc2N)cc1` [Compound 52, 4-((2-Amino-4-(isoindolin-2-ylmethyl)phenoxy)methyl)-N,N-dimethyl-benzamide], the IC50 lay in the range of 351 to 1500 nM.

For `COc1cc(CN2Cc3ccc(S(C)(=O)=O)cc3C2)ccc1OCc1ccc(C(=O)N(C)C)cc1` [Compound 32, 4-((2-Methoxy-4-((5-(methylsulfonyl)isoindolin-2-yl)methyl)phenoxy)methyl)-N,N-dimethylbenzamide], the IC50 was 351 to 1500 nM.

Consider `CN(C)C(=O)c1cc(CN2Cc3ccccc3C2)ccc1OCc1ccc(S(C)(=O)=O)cc1` [Compound 17, 5-(Isoindolin-2-ylmethyl)-N,N-dimethyl-2-((4-(methylsulfonyl)benzyl)oxy)-benzamide], for which the IC50 lay within 351 to 1500 nM.

Turning to `COCCN(C)C(=O)c1ccc(COc2ccc(CN3Cc4ccccc4C3)cc2OC)cc1` [Compound 35, 4-((4-(Isoindolin-2-ylmethyl)-2-methoxyphenoxy)methyl)-N-(2-methoxyethyl)-N-methylbenzamide], the IC50 is below 150 nM.
